Laboratory results from US20230310388A1, “Methods and Compositions for Treating Fungal Infections” (Neoculi Pty Ltd, priority 2020, published 2023).
One block for each compound: values may come before it.

What was measured:
[1] = tested on: Candida parapsilosis; experiment: CLSI broth microdilution MIC (Example 3); type: cell-based; details: Candida parapsilosis ATCC 22019
Method: (§1) Antifungal minimum inhibitory concentration (MIC) testing was undertaken as recommended by the CLSI. Briefly, antifungal susceptibility tests were performed for amphotericin B, robenidine (NCL812) and 5 robenidine analogs (NCL062, NCL195, NCL219, NCL259, NCL265) by standard broth microdilution method (CLSI) in RPMI 1640. Various concentrations (ranging from high to low) of the selected compounds were prepared in RPMI 1640 medium by double dilution in 96-well microtitre plates. Each well contained an inoculum of approximately 2×10^3 cells/mL. The wells without addition of drugs served as negative (no inoculum) and positive (inoculum only) growth controls. Microtitre plates were incubated at 35° C. for 24-48 hours. […] Antifungal MICs were determined for each isolate in duplicate; if the values obtained were different, the MIC test was repeated a third time. Antifungal susceptibility tests were performed for amphotericin B and NCL analogs by standard broth microdilution method (CLSI). Briefly, various concentrations (ranging from high to low) of the selected compounds were prepared in RPMI 1640 medium by double dilution in the 96-well plates. Each well contained an inoculum of approximately 2×10^3 cells/mL. The wells without addition of drugs served as a negative control. Micro plates were incubated at 35° C. for 48 hour and read spectrophotometrically at 600 nm, using a microplate reader (Multiskan-EX; Thermo Elect. Corp., USA).

[2] = tested on: Candida albicans; experiment: CLSI broth microdilution MIC (Example 3); type: cell-based
Method: as §1

[3] = tested on: Cryptococcus neoformans; experiment: CLSI broth microdilution MIC (Example 6); type: cell-based
Method: (§2) Antifungal minimum inhibitory concentration (MIC) testing was undertaken as recommended by the CLSI (1). Briefly, antifungal susceptibility tests were performed for amphotericin B, robenidine (NCL812) and 10 robenidine analogs (NCL023, NCL024, NCL097, NCL113, NCL115, NCL195, NCL219, NCL220, NCL259, NCL265) by standard broth microdilution method (CLSI) in RPMI 1640. Various concentrations (ranging from high to low) of the selected compounds were prepared in RPMI 1640 medium by double dilution in 96-well microtitre plates. Each well contained an inoculum of approximately 2×10^3 cells/mL. The wells without addition of drugs served as negative (no inoculum) and positive (inoculum only) growth controls. Microtitre plates were incubated at 35° C. for 24-48 hours. […] Antifungal MICs were determined for each isolate in duplicate; if the values obtained were different, the MIC test was repeated a third time.

[4] = tested on: Candida albicans; experiment: CLSI broth microdilution MIC (Example 6); type: cell-based
Method: as §2

[5] = tested on: Candida albicans ATCC14053; experiment: Broth micro-dilution screen at 16 μg/mL and MIC (Example 9); type: cell-based; details: for Screen at 16 μg/mL: single concentration 16 μg/mL, Growth or No growth of C. albicans ATCC14053
Method: The antifungal activity of 201 NCL analogs against Candida albicans ATCC14053 in vitro was investigated. A broth micro-dilution method was used, according to CLSI guidelines as described. NCL analogs were dissolved in DMSO and originally screened at a single concentration of 16 μg/mL.

[6] = tested on: Cryptococcus neoformans; experiment: CLSI broth microdilution MIC (Example 4); type: cell-based
Method in brief: (§3)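 CLSI broth microdilution in RPMI 1640 with two-fold compound dilutions and inoculum about 2×10^3 cells/mL. Plates incubated 35° C for 24-48 hours; MICs determined in duplicate, with a third test when the duplicates differed.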

[7] = tested on: Candida albicans; experiment: CLSI broth microdilution MIC (Example 4); type: cell-based; details: for antifungal activity against the two isolates of Candida albicans: summary in words
Method in brief: as §3

[8] = tested on: C. gattii; experiment: CLSI broth microdilution MIC (Example 6); type: cell-based, Cryptococcus gattii
Method: as §2

[9] = tested on: Cryptococcus neoformans; experiment: CLSI broth microdilution MIC (Example 5); type: cell-based
Method: as §2, with “CLSI.” for “CLSI (1).”, “and” for “and 10”, “(NCL23, NCL24, NCL97,” for “(NCL023, NCL024, NCL097,”

[10] = tested on: Candida albicans; experiment: CLSI broth microdilution MIC (Example 5); type: cell-based
Method: as §2, with “CLSI.” for “CLSI (1).”, “and” for “and 10”, “(NCL23, NCL24, NCL97,” for “(NCL023, NCL024, NCL097,”

[11] = Candida albicans ATCC 90028, 1st
[12] = Candida albicans ATCC 90028, 2nd

MIC ([1]; 1st): >32 µg/mL | MIC ([1]; 2nd): >32 µg/mL | MIC [2, 11]: >32 µg/mL | MIC [2, 12]: >32 µg/mL | MIC ([2]; Candida albicans, 1st): >32 µg/mL | MIC ([2]; Candida albicans, 2nd): >32 µg/mL | MIC ([3]; Cryptococcus neoformans SA1): 2 µg/mL | MIC ([3]; Cryptococcus neoformans SA2): 2 µg/mL | MIC ([3]; human clinical isolate C. neoformans serotype A/D hybrid): >32 µg/mL | MIC ([3]; human clinical isolate C. neoformans var grubii 16-90050434): >32 µg/mL | MIC ([3]; human clinical isolate C. neoformans var grubii 17-90028233): >32 µg/mL | MIC ([3]; human clinical isolate C. neoformans var grubii 17-93996464): >32 µg/mL | MIC ([3]; human clinical isolate C. neoformans var grubii 17-93996964): >32 µg/mL | MIC ([4]; C. albicans SA3): 16 µg/mL | MIC ([4]; Candida albicans ATCC 90028): 32 µg/mL | MIC ([5]; C. albicans ATCC14053, test range 0.25-64 μg/mL, duplicate): >64 µg/mL | MIC at 24-48 hours ([6]; Cryptococcus neoformans SA1): 2 µg/mL | MIC at 24-48 hours ([6]; Cryptococcus neoformans SA2): 2 µg/mL | MIC at 24-48 hours ([7]; Candida albicans ATCC 90028): 32 µg/mL | MIC at 24-48 hours ([7]; Candida albicans SA3): 16 µg/mL | MIC ([8]; human clinical isolate C. gatti 17-90232099): >32 µg/mL | MIC ([8]; human clinical isolate C. gattii 16-90050373): >32 µg/mL | MIC ([8]; human clinical isolate C. gattii 17-90028211): >32 µg/mL | MIC ([8]; human clinical isolate C. gattii 17-90028217): >32 µg/mL | MIC ([8]; human clinical isolate C. gattii 17-90028242): >32 µg/mL | MIC ([9]; Cryptococcus neoformans SA1): 2 µg/mL | MIC ([9]; Cryptococcus neoformans SA2): 2 µg/mL | MIC ([10]; C. albicans SA3): 16 µg/mL | MIC ([10]; Candida albicans ATCC 90028): 32 µg/mL | MIC ([10]; clinical isolate C. albicans 12-93301752 Azole Resistant): >16 µg/mL | MIC ([10]; clinical isolate C. albicans 14-90045999 Azole Resistant): 4 µg/mL | MIC ([10]; clinical isolate C. albicans 15-45171061): 8 µg/mL | MIC ([10]; clinical isolate C. albicans 15-91329871): >16 µg/mL | MIC ([10]; clinical isolate C. albicans 16-24136919 Azole Resistant): >16 µg/mL | MIC ([10]; clinical isolate C. albicans 16-46177400): >16 µg/mL | MIC ([10]; clinical isolate C. albicans 16-90050810): >16 µg/mL | MIC ([10]; clinical isolate C. albicans 16-90054237): >16 µg/mL | MIC ([10]; clinical isolate C. albicans 18-144-00196): >16 µg/mL | MIC ([10]; clinical isolate C. albicans 18-148-08188 Azole Resistant): >16 µg/mL
Structure (SMILES): C/C(=N\NC(=N)N/N=C(\C)c1ccc(C(C)(C)C)cc1)c1ccc(C(C)(C)C)cc1.Cl [NCL219]
Screen at 16 μg/mL [5]: Growth | antifungal activity against the two isolates of Candida albicans [7]: high antifungal activity | activity against one or more isolates of Cryptococcus neoformans and Candida albicans ([10]; summary in words): highly active

MIC ([1]; 1st): 0.5 µg/mL | MIC ([1]; 2nd): 1 µg/mL | MIC [2, 11]: 1 µg/mL | MIC [2, 12]: 1 µg/mL | MIC ([2]; Candida albicans, 1st): 0.5 µg/mL | MIC ([2]; Candida albicans, 2nd): 1 µg/mL | MIC at 24-48 hours ([6]; Cryptococcus neoformans SA1): 1 µg/mL | MIC at 24-48 hours ([6]; Cryptococcus neoformans SA2): 1 µg/mL | MIC at 24-48 hours ([7]; Candida albicans ATCC 90028): 1 µg/mL | MIC at 24-48 hours ([7]; Candida albicans SA3): 1 µg/mL
Structure (SMILES): C/C(=N\NC(=N)N/N=C(\C)c1ccc(Cl)cc1)c1ccc(Cl)cc1.Cl [NCL062]
Screen at 16 μg/mL [5]: Growth | antifungal activity against the two isolates of Candida albicans [7]: high antifungal activity
